Measurements as given in patent publication US20240018102A1, “COMPOUNDS AND COMPOSITIONS FOR TREATING CONDITIONS ASSOCIATED WITH LPA RECEPTOR ACTIVITY” (Lhotse Bio, Inc., priority 2020, published 2024).

target: T1, human LPA1 (Homo sapiens, UniProt Q92633); assay: In vitro LPA1 calcium flux antagonist assay, Bioduro protocol; type: cell-based; conditions: CHO-K1 cells overexpressing human LPA1 and G15a; LPA challenge at EC80; calcium mobilization on FLIPR Tetra; read-out: IC50 (nM) in Assay B2
T1 construct: expressed in transfected cells; host or cells: CHO-K1
T1 sequence (Q92633 whole entry): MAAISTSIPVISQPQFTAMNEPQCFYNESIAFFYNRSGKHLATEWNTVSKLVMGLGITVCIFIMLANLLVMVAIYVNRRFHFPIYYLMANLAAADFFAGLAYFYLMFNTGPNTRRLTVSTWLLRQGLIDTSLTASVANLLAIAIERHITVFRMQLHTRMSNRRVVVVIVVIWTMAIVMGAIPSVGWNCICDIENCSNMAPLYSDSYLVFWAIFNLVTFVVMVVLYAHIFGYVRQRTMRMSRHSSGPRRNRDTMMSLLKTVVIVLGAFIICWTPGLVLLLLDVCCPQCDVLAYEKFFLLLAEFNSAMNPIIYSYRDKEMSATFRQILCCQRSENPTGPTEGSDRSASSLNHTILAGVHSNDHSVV
Experimental: In Vitro LPA1 Calcium Flux Antagonist Assay Bioduro Protocol
CHO-K1 cells overexpressing human LPA1 and G15a were seeded at a total volume of 20 uL (15000 cells/well) into Matrigel pre-coated 384-well plates (coming -3764) and incubated at 37° C. After overnight incubation, the cells were serum starved for 4 h. Assays were performed in dye loading buffer containing 1× Fluo-8 AM (AAT Bioquest, 21080) and 2.5 mM probenecid (Thermo Fisher, 36400) in HBSS/20 mM Hepes. After cell starvation, the medium was replaced with 20 uL of dye loading buffer and incubated at 37° C. for 30 min. Then 5 uL of 5× compound titrated in dye loading buffer was added to the cells and incubated for 30 min followed by LPA challenge at EC80. Calcium mobilization was measured on a FLIPR Tetra (MDS). For LPA EC80 determination, starved cells were incubated with 20 uL of dye loading buffer for 1 h, then 5 uL of 5×LPA titrated in dye loading buffer was added to the cells. Calcium signals induced by LPA was monitors on a FLIPR.
Percentage inhibition is calculated using the following formula:
% Inhibition=100%×(1−(mean RFU of test sample−mean RFU of DMSO)/(mean RFU of LPA control−mean RFU of DMSO)).

SMILES | IC50 [nM]
COc1cc([C@@H](O)[C@H](Cc2nc(CC(=O)O)c(C(C)C)s2)OC2CCCC2)cc(OC)c1C [Compound 223] | 99.4
COc1cc([C@@H](O)[C@H](Cn2cc3cc(C#N)cc(C(=O)O)c3n2)OC2CCCC2)ccc1C(F)F [Compound 225] | 29.3
Cc1ccc([C@@H](O)[C@H](Cn2cc3cc(C#N)cc(C(=O)O)c3n2)OC2CCCC2)cc1OC(F)(F)F [Compound 228] | 62.2
COc1cc([C@@H](O)[C@H](Cn2cc3cc(C#N)cc(C(=O)O)c3n2)OCC(C)C)cc(OC)c1C [Compound 232] | 27.2
COc1cc([C@@H](O)[C@H](Cc2nc3c(C(=O)O)cc(C)cc3s2)OCC(C)C)cc(OC)c1C [Compound 234, 2-((2S,3R)-3-(3,5-dimethoxy-4-methylphenyl)-3-hydroxy-2-isobutoxypropyl)-6-methylbenzo[d]thiazole-4-carboxylic acid] | 3.71
COc1cc(C(=O)O)c2nc(C[C@H](OCC(C)C)[C@H](O)c3cc(OC)c(C)c(OC)c3)sc2c1 [Compound 236] | 9.18
COc1cc(C(=O)O)n2nc(C[C@H](OC3CCCC3)[C@H](O)c3cc(OC)c(C)cc3C)cc2c1 [Compound 238] | 53.3
CCc1cc(C(=O)O)n2nc(C[C@H](OCC(C)C)[C@H](O)c3cc(OC)c(C)c(OC)c3)cc2c1 [Compound 241] | 26.7
COc1cc([C@@H](O)[C@H](Cc2cc3cc(C4CC4)cc(C(=O)O)n3n2)OCC(C)C)cc(OC)c1C [Compound 242] | 7.5
COc1cc([C@@H](O)[C@H](Cc2nc3c(C(=O)O)cc(C(F)(F)F)cc3s2)OC2CCCC2)cc(OC)c1C [Compound 244] | 3.34
COCc1sc(C[C@H](OC2CCCC2)[C@H](O)c2cc(OC)c(C)c(OC)c2)nc1CC(=O)O [Compound 249] | 60.2
COc1cc([C@@H](O)[C@H](Cc2cc3cc(C)cc(C(=O)O)n3n2)OCC(C)C)cc(OC)c1C [Compound 252] | 24.5
COc1cc([C@@H](O)[C@H](Cc2nc3c(C(=O)O)cc(C(F)(F)F)cc3s2)OCC(C)C)cc(OC)c1C [Compound 253] | 5.79
CCc1cc(C(=O)O)c2nc(C[C@H](OCC(C)C)[C@H](O)c3cc(OC)c(C)c(OC)c3)sc2c1 [Compound 254] | 8.93
CCOc1cc([C@@H](O)[C@H](Cc2nc3c(C(=O)O)cccc3s2)OC2CCCC2)cc(OCC)c1C#N [Compound 257, 2-((2S,3R)-3-(4-cyano-3,5-diethoxyphenyl)-2-(cyclopentyloxy)-3-hydroxypropyl) benzo [d]thiazole-4-carboxylic acid] | 47.2
CCOc1cc([C@@H](O)[C@H](Cc2nc3c(C(=O)O)cccc3s2)OCC(C)C)ccc1C(C)=O [Compound 258] | 449
CCCCc1sc(C[C@H](OC2CCCC2)[C@H](O)c2cc(OC)c(C)c(OC)c2)nc1CC(=O)O [Compound 259] | 31.9
CCCc1sc(C[C@H](OC2CCCC2)[C@H](O)c2cc(OC)c(C)c(OC)c2)nc1[C@H](C)C(=O)O [Compound 260] | 28
CCCc1sc(C[C@H](OC2CCCC2)[C@H](O)c2cc(OC)c(C)c(OC)c2)nc1[C@@H](C)C(=O)O [Compound 261] | 366
COc1cc([C@@H](O)[C@H](Cc2nc3c(C(=O)O)cc(F)cc3s2)OCC(C)C)cc(OC)c1C [Compound 262] | 15.8
COc1cc([C@@H](O)[C@H](Cc2nc3c(C(=O)O)cc(F)cc3s2)OCC2CCCC2)cc(OC)c1C [Compound 263] | 10.1
COc1cc([C@@H](O)[C@H](Cc2cc3cccc(C(=O)O)n3n2)OC2Cc3ccccc3C2)cc(OC)c1C [Compound 264] | 5.33
CCCc1sc(C[C@H](OCC(C)C)[C@H](O)c2cc(OC)c(C)c(OC)c2)nc1C(C)C(=O)O (stereo partly drawn) [Compound 267] | 103
COc1cc([C@@H](O)[C@H](Cc2nc3c(C(=O)O)cc(C4CC4)cc3s2)OCC(C)C)cc(OC)c1C [Compound 271] | 2.19
CCCc1sc(C[C@H](OC2CCCC2)[C@H](O)c2cc(OC)c(C(C)=O)c(OC)c2)nc1C(C)C(=O)O (stereo partly drawn) [Compound 272] | 71.6
COc1cc([C@@H](O)[C@H](Cc2nc3c(C(=O)O)cccc3s2)OC2Cc3ccccc3C2)cc(OC)c1C [Compound 273] | 3.81
COc1cc(C(=O)O)c2nc(C[C@H](OC3Cc4ccccc4C3)[C@H](O)c3cc(OC)c(C)c(OC)c3)sc2c1 [Compound 274] | 3.71
COc1cc([C@@H](O)[C@H](Cc2cc3c(OC)ccc(C(=O)O)n3n2)OC2Cc3ccccc3C2)cc(OC)c1C [Compound 276] | 5
COc1cc([C@@H](O)[C@H](Cc2nc3c(C(=O)O)cc(OC)c(F)c3s2)OC2CCCC2)cc(OC)c1C [Compound 279] | 2.71

Results, then the molecule that gave them:

IC50 [nM] | SMILES
1300 | COc1cc([C@@H](O)[C@H](Cc2cn3cc(C)cc(C(=O)O)c3n2)OC2CCCC2)cc(OC)c1C [Compound 217]
13 | COc1cc([C@@H](O)[C@H](Cc2cc3cc(C)cc(C(=O)O)n3n2)OC2CCCC2)cc(OC)c1C [Compound 218]
20.4 | CCCc1cc(C(=O)O)c2nn(C[C@H](OC3CCCC3)[C@H](O)c3cc(OC)c(C)c(OC)c3)cc2n1 [Compound 219]
106 | COc1cc([C@@H](O)[C@H](Cn2cc3cc(CNC(C)=O)cc(C(=O)O)c3n2)OC2CCCC2)cc(OC)c1C [Compound 220]
91.8 | COc1cc([C@@H](O)[C@H](Cn2cc3cc(C(N)=O)cc(C(=O)O)c3n2)OC2CCCC2)cc(OC)c1C [Compound 221]
43.4 | COc1cc([C@@H](O)[C@H](Cn2cc3nc(C(N)=O)cc(C(=O)O)c3n2)OC2CCCC2)cc(OC)c1C [Compound 222]
327 | COc1cc([C@@H](O)[C@H](Cn2cc3nccc(C(=O)O)c3n2)OC2CCCC2)cc(OC)c1Br [Compound 224]
28.9 | CCOc1cc([C@@H](O)[C@H](Cn2cc3cc(C#N)cc(C(=O)O)c3n2)OC2CCCC2)cc(OCC)c1C [Compound 226]
149 | COc1cc([C@@H](O)[C@H](Cn2cc3cc(C#N)cc(C(=O)O)c3n2)OC2CCCC2)ccc1C1CC1 [Compound 227]
7.26 | COc1cc([C@@H](O)[C@H](Cc2cc3cc(C4CC4)cc(C(=O)O)n3n2)OC2CCCC2)cc(OC)c1C [Compound 229]
872 | CCc1cc(C(=O)O)c2nc(C[C@H](OC3CCCC3)[C@H](O)c3cc(OC)c(C)c(OC)c3)cn2c1 [Compound 230]
11.1 | COc1cc([C@@H](O)[C@H](Cn2cc3cc(C4CC4)nc(C(=O)O)c3n2)OC2CCCC2)cc(OC)c1C [Compound 231]
40.8 | COc1cc(C(=O)O)n2nc(C[C@H](OC3CCCC3)[C@H](O)c3cc(OC)c(C)c(OC)c3)cc2c1 [Compound 235]
10.3 | COc1cc([C@@H](O)[C@H](Cc2cc3c(OC)ccc(C(=O)O)n3n2)OC2CCCC2)cc(OC)c1C [Compound 237, 2-((2S,3R)-2-(cyclopentyloxy)-3-(3,5-dimethoxy-4-methylphenyl)-3-hydroxypropyl)-4-methoxypyrazolo[1,5-a]pyridine-7-carboxylic acid]
2.51 | COc1cc([C@@H](O)[C@H](Cc2nc3c(C(=O)O)cc(C4CC4)cc3s2)OC2CCCC2)cc(OC)c1C [Compound 245]
1.65 | COc1cc([C@@H](O)[C@H](Cc2nc3c(C(=O)O)cc(Cl)cc3s2)OC2CCCC2)cc(OC)c1C [Compound 246]
1.93 | COc1cc(C(=O)O)c2nc(C[C@H](OC3CCCC3)[C@H](O)c3cc(OC)c(C)c(OC)c3)sc2c1 [Compound 247]
≥ 10000 | COc1cc([C@@H](O)[C@H](Cc2cn3cccc(C(=O)O)c3n2)OC2CCCC2)cc(OC)c1C [Compound 248]
17.4 | COc1cc([C@@H](O)[C@H](Cc2cc3cc(C(F)(F)F)cc(C(=O)O)n3n2)OC2CCCC2)cc(OC)c1C [Compound 250]
37.3 | CCc1cc(C(=O)O)n2nc(C[C@H](OC3CCCC3)[C@H](O)c3cc(OC)c(C)c(OC)c3)cc2c1 [Compound 251]
5.75 | CCc1cc(C(=O)O)c2nc(C[C@H](OC3CCCC3)[C@H](O)c3cc(OC)c(C)c(OC)c3)sc2c1 [Compound 255]
4.12 | COc1cc([C@@H](O)[C@H](Cc2nc3c(C(=O)O)cc(C)cc3s2)OC2CCCC2)cc(OC)c1C [Compound 256]
22.7 | COc1cc([C@@H](O)[C@H](Cc2cc3c(C(=O)O)cccc3s2)OC2CCCC2)cc(OC)c1C [Compound 265, 2-((2S,3R)-2-(cyclopentyloxy)-3-(3,5-dimethoxy-4-methylphenyl)-3-hydroxypropyl)benzo[b]thiophene-4-carboxylic acid]
7.18 | COc1cc([C@@H](O)[C@H](Cc2nc3c(C(=O)O)cc(F)cc3s2)OC2CCCC2)cc(OC)c1C [Compound 266]
52 | COc1cc([C@@H](O)[C@H](Cc2nc(C(C)C(=O)O)c(C3CC3)s2)OC2CCCC2)cc(OC)c1C (stereo partly drawn) [Compound 268]
1.65 | CCOc1cc(C(=O)O)c2nc(C[C@H](OC3CCCC3)[C@H](O)c3cc(OC)c(C)c(OC)c3)sc2c1 [Compound 275]
717 | COc1cc([C@H](O)[C@H](Cc2nc3c(C(=O)O)cccc3s2)OC2CCCC2)cc(OC)c1C [Compound 281]
1760 | COc1cc(C(=O)O)c2nc(C[C@@H](OC3CCCC3)[C@H](O)c3cc(OC)c(C)c(OC)c3)sc2c1 [Compound 283]
